Patent US9120820B2, “Fluorescent molecular probes for use in assays that measure test compound competitive binding with SAM-utilizing proteins” (CAYMAN CHEMICAL COMPANY, INCORPORATED, priority 2011, dated 2015)

What was measured:
NSD2 = target: T1, NSD2 (Homo sapiens, UniProt O96028); assay: Fluorescence polarization saturation binding of fluorescent probe to NSD2
T1 construct: purchased Cayman 10758
T1 sequence (O96028 1-1365): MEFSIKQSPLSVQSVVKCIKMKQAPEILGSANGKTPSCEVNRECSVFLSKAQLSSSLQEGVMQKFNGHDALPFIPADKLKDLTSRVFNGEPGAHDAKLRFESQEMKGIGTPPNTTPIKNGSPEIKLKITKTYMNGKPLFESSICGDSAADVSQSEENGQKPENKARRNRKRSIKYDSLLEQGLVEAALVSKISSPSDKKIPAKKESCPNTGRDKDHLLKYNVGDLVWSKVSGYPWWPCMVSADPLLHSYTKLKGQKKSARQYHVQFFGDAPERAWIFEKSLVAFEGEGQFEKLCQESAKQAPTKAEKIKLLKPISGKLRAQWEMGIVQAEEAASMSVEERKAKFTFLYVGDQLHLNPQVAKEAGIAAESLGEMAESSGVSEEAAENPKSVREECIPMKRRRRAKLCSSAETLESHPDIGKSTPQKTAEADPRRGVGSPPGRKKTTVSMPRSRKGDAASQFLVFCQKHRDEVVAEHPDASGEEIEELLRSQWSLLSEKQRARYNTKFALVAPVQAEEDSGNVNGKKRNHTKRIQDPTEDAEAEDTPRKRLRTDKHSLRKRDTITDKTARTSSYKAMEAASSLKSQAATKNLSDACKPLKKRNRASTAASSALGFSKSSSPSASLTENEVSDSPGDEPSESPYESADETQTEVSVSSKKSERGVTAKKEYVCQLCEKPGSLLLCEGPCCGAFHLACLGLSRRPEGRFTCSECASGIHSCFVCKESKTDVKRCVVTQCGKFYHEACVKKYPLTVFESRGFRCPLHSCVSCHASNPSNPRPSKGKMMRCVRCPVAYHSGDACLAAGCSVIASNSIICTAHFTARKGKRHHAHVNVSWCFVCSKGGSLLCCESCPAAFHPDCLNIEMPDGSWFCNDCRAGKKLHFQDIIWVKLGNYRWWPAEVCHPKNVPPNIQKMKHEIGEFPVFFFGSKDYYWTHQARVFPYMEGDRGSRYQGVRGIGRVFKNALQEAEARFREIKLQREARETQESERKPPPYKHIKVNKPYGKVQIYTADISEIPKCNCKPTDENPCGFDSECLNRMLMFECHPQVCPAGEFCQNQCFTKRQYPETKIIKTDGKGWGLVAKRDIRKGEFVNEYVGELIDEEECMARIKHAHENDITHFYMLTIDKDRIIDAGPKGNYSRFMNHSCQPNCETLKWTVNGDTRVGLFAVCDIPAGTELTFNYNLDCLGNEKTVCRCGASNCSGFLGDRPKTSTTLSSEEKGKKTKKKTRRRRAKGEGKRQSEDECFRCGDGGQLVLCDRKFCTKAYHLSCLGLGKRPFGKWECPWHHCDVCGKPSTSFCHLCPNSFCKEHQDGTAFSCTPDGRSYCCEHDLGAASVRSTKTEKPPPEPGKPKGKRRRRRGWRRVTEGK
Experimental: Methods: The experiment was performed once, with two replicate wells for all methyltransferases per condition. The sole exception to this is NSD2 (see details below). The assay was performed in a ½ area, black, 96-well plate (Corning #3686) in a final volume of 30 μL. Methyltransferases (Table 1) were serially diluted two-fold in FP buffer (Cayman Catalog #600028) and 15 μL of a given dilution were added per well to the assay plate. Fifteen microliters of sinefungin probe 1A (10 nM) were added to each well, giving a final sinefungin probe 1A concentration of 5 nM. This concentration of sinefungin probe 1A was chosen because it had at least a 10-fold increase in fluorescence (excitation max 575 nm/emission max 615 nm) over background (buffer). The mixture was incubated in the dark at room temperature for 30 minutes and its fluorescence polarization was read using a BioTek Synergy 4.
For NSD2, the assay was performed essentially as above, but with the following changes. The assay was performed in a 20 μL total volume (10 μL NSD2/10 μL sinefungin probe 1) in low-volume, black, 384-well plates (Nunc #264705). The concentrations of sinefungin probe 1A and methyltransferase were identical to that of the 96-well format. The assay was performed once with three replicate wells per condition.

PRMT4 = target: T2, PRMT4 (Homo sapiens, UniProt Q86X55); assay: Fluorescence polarization saturation binding of fluorescent probe to PRMT4; details: saturation-binding format, read-out: Sinefungin Probe 1A Affinity
T2 construct: made in house
T2 sequence (Q86X55 1-608): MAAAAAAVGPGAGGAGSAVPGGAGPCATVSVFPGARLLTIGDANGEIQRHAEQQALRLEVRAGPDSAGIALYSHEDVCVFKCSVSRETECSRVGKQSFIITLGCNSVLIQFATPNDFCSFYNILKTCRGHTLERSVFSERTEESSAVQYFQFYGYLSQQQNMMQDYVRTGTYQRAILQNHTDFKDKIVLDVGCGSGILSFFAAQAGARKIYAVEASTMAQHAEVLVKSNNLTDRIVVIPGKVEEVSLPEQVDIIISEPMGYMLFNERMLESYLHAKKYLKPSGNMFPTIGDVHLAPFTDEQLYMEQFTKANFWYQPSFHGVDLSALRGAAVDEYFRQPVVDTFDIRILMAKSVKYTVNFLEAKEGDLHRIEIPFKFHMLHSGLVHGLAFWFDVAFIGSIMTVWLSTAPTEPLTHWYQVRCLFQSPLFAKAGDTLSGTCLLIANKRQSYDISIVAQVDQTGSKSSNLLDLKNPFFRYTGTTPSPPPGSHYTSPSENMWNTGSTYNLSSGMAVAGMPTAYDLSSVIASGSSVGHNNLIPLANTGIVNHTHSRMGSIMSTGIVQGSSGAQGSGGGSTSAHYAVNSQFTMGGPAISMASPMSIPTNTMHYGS
Experimental: Sinefungin Probe 1A was tested for the ability to bind to 16 proteins, including several non-methlytransferase protein controls (Table 2). This probe binds to 4 methyltransferases (SET7/9, G9a, GLP, MLL) with Kd values <2 μM.

SET7/9 = target: T3, SET7/9 (Homo sapiens, UniProt Q8WTS6); assay: SET7/9 SAM-Screener high-throughput FP assay, Sinefungin Probe 1A displacement; format: binding; details: SET7/9 30 nM, FIG. 10
T3 construct: purchased Cayman 10320
T3 sequence (Q8WTS6 1-366): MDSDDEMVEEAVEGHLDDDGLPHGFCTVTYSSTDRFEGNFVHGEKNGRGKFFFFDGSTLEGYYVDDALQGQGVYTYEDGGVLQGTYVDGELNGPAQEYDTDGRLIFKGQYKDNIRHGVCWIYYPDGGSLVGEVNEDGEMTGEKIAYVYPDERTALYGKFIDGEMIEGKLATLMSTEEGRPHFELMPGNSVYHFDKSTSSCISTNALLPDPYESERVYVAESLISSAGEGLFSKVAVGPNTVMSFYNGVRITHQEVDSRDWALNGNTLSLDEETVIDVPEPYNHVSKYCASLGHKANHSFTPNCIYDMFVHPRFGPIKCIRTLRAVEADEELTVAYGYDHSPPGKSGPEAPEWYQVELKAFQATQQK
Experimental: Methods: A collection of 14,400 compounds from the Maybridge HitFinder collection of compounds was assayed for the displacement of Sinefungin Probe 1A from SET7/9 in a high-throughput manner using the SET7/9 SAM-Screener FP assay Cayman Catalog Item #600490). Thirty microliters of assay buffer (50 mM Tris pH 8.0, 50 mM KCl, 5 mM CHAPS, 2 mM DTT) was added to every well of a black 384-well polystyrene microtiter plate (Thermo-Fisher 364576). To every well, excluding control wells, was added one microliter of a DMSO solution containing a test compound. Control wells received either 1 μl DMSO or 1 μl of a sinefungin solution. The final concentration of sinefungin control or test compounds in the assay was 50 μM or 10 μM, respectively. To every well of the plate was added 10 μl of a SET7/9 solution to give a final assay concentration of 30 nM. After a 15-minute incubation at ambient temperature, 10 μl of Sinefungin Probe 1A solution was added to every well to give a final assay concentration of 10 nM in a total assay volume of 50 μl Samples were analyzed using a Biotek Synergy H4 plate reader in fluorescence polarization mode after a 30-minute incubation at ambient temperature in the dark. Data were analyzed using GeneData (v. 9.01). […]

Nc1ncnc2c1ncn2[C@@H]1O[C@H](C[C@@H](N)CC[C@H](N)C(=O)O)[C@@H](OCc2cnnn2CCCCCCNC(=O)OC2CCN(C(=O)c3ccccc3C3=c4cc5c6c(c4Oc4c3cc3c7c4CCCN7CCC3)CCC[N+]=6CCC5)CC2)[C@H]1O [Sinefungin Probe 1A]
measurable affinity for the probe (NSD2; Example 8, NSD2, 5 nM probe, 384-well, FIG. 2): only SET7/9 and G9a displayed measurable affinity | Kd (NSD2; NSD2, saturation-binding format, read-out: Sinefungin Probe 1A Affinity): > 2000 nM | Kd (PRMT4): > 2000 nM | increase of probe polarization by binding (SET7/9): > 120 mp
